Data: US20260035387A1 (BIOGEN MA INC., priority 2022, published 2026)

System: mutant Huntington (HTT) protein
Experiment: HTT Mutant HTRF iPSC assay (mHTT protein lowering)
Assay type: cell-based
Settings: human iPSC derived from a HTT patient with a poly-Q49 mutation

| Compound | IC50 [nM] |
| --- | --- |
| Cc1cn2cc(NC(=O)c3cc4ccc(N5CC[C@H]6CN(C)CC[C@H]65)nc4s3)ccc2n1 (stereo in doubt) [Compound 28, N-(2-methylimidazo[1,2-a]pyridin-6-yl)-6-((3aS,7aR)-5-methyloctahydro-1H-pyrrolo[3,2-c]pyridin-1-yl)thieno[2,3-b]pyridine-2-carboxamide] | 1000 to 9000 |
| Cc1cn2cc(NC(=O)c3cc4ccc(N5CCC6CCN(C)C6C5)nc4s3)ccc2n1 (stereo in doubt) [Compound 30, N-(2-methylimidazo[1,2-a]pyridin-6-yl)-6-((3aR,7aR)-1-methyloctahydro-6H-pyrrolo[2,3-c]pyridin-6-yl)thieno[2,3-b]pyridine-2-carboxamide] | 100 to 1000 |
| Cc1cn2cc(NC(=O)c3cc4ccc(N5C[C@H]6C[C@@H]5CN6C(C)C)nc4s3)ccc2n1 (stereo in doubt) [Compound 34, 6-((1R,4R)-5-isopropyl-2,5-diazabicyclo[2.2.1]heptan-2-yl)-N-(2-methylimidazo[1,2-a]pyridin-6-yl)thieno[2,3-b]pyridine-2-carboxamide] | < 100 |
| Cc1cn2cc(NC(=O)c3cc4ccc(N5CC6CCN(C)C6C5)nc4s3)ccc2n1 (stereo in doubt) [Compound 43, 6-((3aR,6aR)-1-methylhexahydropyrrolo[3,4-b]pyrrol-5(1H)-yl)-N-(2-methylimidazo[1,2-a]pyridin-6-yl)thieno[2,3-b]pyridine-2-carboxamide] | 100 to 1000 |
| CCN[C@H]1CCN(c2ccc3cc(C(=O)Nc4cc(F)c5nc(C)cn5c4)sc3n2)C1 (stereo in doubt) [Compound 67, 6-[(3S)-3-(ethylamino)pyrrolidin-1-yl]-N-(8-fluoro-2-methyl-imidazo[1,2-a]pyridin-6-yl)thieno[2,3-b]pyridine-2-carboxamide] | < 100 |
| CCN[C@@H]1CCN(c2ccc3cc(C(=O)Nc4cc(F)c5nc(C)cn5c4)sc3n2)C1 (stereo in doubt) [Compound 68, 6-[(3R)-3-(ethylamino)pyrrolidin-1-yl]-N-(8-fluoro-2-methyl-imidazo[1,2-a]pyridin-6-yl)thieno[2,3-b]pyridine-2-carboxamide] | < 100 |
| Cc1cn2cc(NC(=O)c3nc4ccc(N5CC[C@@H](N6CCC6)C5)nc4s3)cc(F)c2n1 (stereo in doubt) [Compound 92, (rel-(R)-5-(3-(azetidin-1-yl)pyrrolidin-1-yl)-N-(8-fluoro-2-methylimidazo[1,2-a]pyridin-6-yl)thiazolo[5,4-b]pyridine-2-carboxamide] | < 100 |
| COc1cc(NC(=O)c2cc3nc(N4C[C@H]5CN(C)C[C@H]54)ccc3o2)cn2cc(C)nc12 (stereo in doubt) [Compound 168, N-(8-methoxy-2-methyl-imidazo[1,2-a]pyridin-6-yl)-5-[(1R,5S)-3-methyl-3,6-diazabicyclo[3.2.0]heptan-6-yl]furo[3,2-b]pyridine-2-carboxamide] | < 100 |
| Cc1cn2cc(NC(=O)c3cc4ccc(N5CCC(N(C)C)C5)nc4s3)ccc2n1 (centres unmarked) [Compound 1, 6-[3-(dimethylamino)pyrrolidin-1-yl]-N-(2-methylimidazo[1,2-a]pyridin-6-yl)thieno[2,3-b]pyridine-2-carboxamide] | 1000 to 9000 |
| Cc1cc(NC(=O)c2cc3ccc(N4C[C@@H](C)N[C@@H](C)C4)nc3s2)cc2cn(C)nc12 [Compound 2, N-(2,7-dimethylindazol-5-yl)-6-[(3S,5R)-3,5-dimethylpiperazin-1-yl]thieno[2,3-b]pyridine-2-carboxamide] | < 100 |
| Cc1cn2cc(NC(=O)c3cc4ccc(N5CCN(C)CC5)nc4s3)nc(C)c2n1 [Compound 3, N-(2,8-dimethylimidazo[1,2-a]pyrazin-6-yl)-6-(4-methylpiperazin-1-yl)thieno[2,3-b]pyridine-2-carboxamide] | 100 to 1000 |
| Cc1cc(NC(=O)c2cc3ccc(N4CCC(N(C)C)C4)nc3s2)cc2cn(C)nc12 (centres unmarked) [Compound 4, N-(2,7-dimethyl-2H-indazol-5-yl)-6-(3-(dimethylamino)pyrrolidin-1-yl)thieno[2,3-b]pyridine-2-carboxamide] | 100 to 1000 |
| Cc1cn2cc(NC(=O)c3cc4ccc(N5CCC(N(C)C)C5)nc4s3)nc(C)c2n1 (centres unmarked) [Compound 5, 6-(3-(dimethylamino)pyrrolidin-1-yl)-N-(2,8-dimethylimidazo[1,2-a]pyrazin-6-yl)thieno[2,3-b]pyridine-2-carboxamide] | 100 to 1000 |
| Cc1cn2cc(NC(=O)c3cc4ccc(N5CC[C@@H](N(C)C)C5)nc4s3)ncc2n1 [Compound 6, 6-[(3R)-3-(dimethylamino)pyrrolidin-1-yl]-N-(2-methylimidazo[1,2-a]pyrazin-6-yl)thieno[2,3-b]pyridine-2-carboxamide] | 100 to 1000 |
| Cc1cc(NC(=O)c2cc3nc(N4CCC(N(C)C)C4)ccc3o2)cc2cn(C)nc12 (centres unmarked) [Compound 7, N-(2,7-dimethyl-2H-indazol-5-yl)-5-(3-(dimethylamino)pyrrolidin-1-yl)furo[3,2-b]pyridine-2-carboxamide] | 1000 to 9000 |
| Cc1cn2cc(NC(=O)c3cc4nc(N5CC[C@H](N(C)C)C5)ccc4o3)cc(F)c2n1 [Compound 8, 5-[(3S)-3-(dimethylamino)pyrrolidin-1-yl]-N-(8-fluoro-2-methyl-imidazo[1,2-a]pyridin-6-yl)furo[3,2-b]pyridine-2-carboxamide] | 1000 to 9000 |

| Compound | IC50 [nM] |
| --- | --- |
| Cc1cn2cc(NC(=O)c3nc4ccc(N5CCC(N(C)C)C5)nc4s3)ccc2n1 (centres unmarked) [Compound 9, 5-[3-(dimethylamino)pyrrolidin-1-yl]-N-(2-methylimidazo[1,2-a]pyridin-6-yl)thiazolo[5,4-b]pyridine-2-carboxamide] | 1000 to 9000 |
| Cc1cn2cc(NC(=O)c3cc4ccc(N5CC[C@@H](N(C)C)C5)nc4s3)cc(F)c2n1 [Compound 10, 6-[(3R)-3-(dimethylamino)pyrrolidin-1-yl]-N-(8-fluoro-2-methyl-imidazo[1,2-a]pyridin-6-yl)thieno[2,3-b]pyridine-2-carboxamide] | < 100 |
| Cc1cn2cc(NC(=O)c3cc4ccc(N5CCC(N(C)C)CC5)nc4s3)ccc2n1 [Compound 11, 6-(4-(dimethylamino)piperidin-1-yl)-N-(2-methylimidazo[1,2-a]pyridin-6-yl)thieno[2,3-b]pyridine-2-carboxamide] | 100 to 1000 |
| Cc1cn2cc(NC(=O)c3cc4ccc(NC5CC6CCCN6C5)nc4s3)ccc2n1 (centres unmarked) [Compound 12, 6-((hexahydro-1H-pyrrolizin-2-yl)amino)-N-(2-methylimidazo[1,2-a]pyridin-6-yl)thieno[2,3-b]pyridine-2-carboxamide] | 100 to 1000 |
| Cc1cn2cc(NC(=O)c3cc4ccc(NC5CCC6CN(C)CC65)nc4s3)ccc2n1 (centres unmarked) [Compound 13, N-(2-methylimidazo[1,2-a]pyridin-6-yl)-6-((2-methyloctahydrocyclopenta[c]pyrrol-4-yl)amino)thieno[2,3-b]pyridine-2-carboxamide] | 1000 to 9000 |
| Cc1cn2cc(NC(=O)c3cc4ccc(NC5CCN6CCCC6C5)nc4s3)ccc2n1 (centres unmarked) [Compound 14, N-(2-methylimidazo[1,2-a]pyridin-6-yl)-6-((octahydroindolizin-7-yl)amino)thieno[2,3-b]pyridine-2-carboxamide] | 100 to 1000 |
| Cc1cn2cc(NC(=O)c3cc4ccc(N5CCC6OCCN(C)C6C5)nc4s3)ccc2n1 (centres unmarked) [Compound 15, 6-(4-methylhexahydro-2H-pyrido[4,3-b][1,4]oxazin-6(5H)-yl)-N-(2-methylimidazo[1,2-a]pyridin-6-yl)thieno[2,3-b]pyridine-2-carboxamide] | 100 to 1000 |
| Cc1cn2cc(NC(=O)c3cc4ccc(N5CCC6CCN(C)CC65)nc4s3)ccc2n1 (centres unmarked) [Compound 16, N-(2-methylimidazo[1,2-a]pyridin-6-yl)-6-(6-methyloctahydro-1H-pyrrolo[2,3-c]pyridin-1-yl)thieno[2,3-b]pyridine-2-carboxamide] | 1000 to 9000 |
| Cc1cn2cc(NC(=O)c3cc4ccc(N5CCC(N6CC(C)(C)C6)CC5)nc4s3)ccc2n1 [Compound 17, 6-(4-(3,3-dimethylazetidin-1-yl)piperidin-1-yl)-N-(2-methylimidazo[1,2-a]pyridin-6-yl)thieno[2,3-b]pyridine-2-carboxamide] | 1000 to 9000 |
| Cc1cn2cc(NC(=O)c3cc4ccc(N5C[C@@H](C)N(C)[C@@H](C)C5)nc4s3)ccc2n1 [Compound 18, N-(2-methylimidazo[1,2-a]pyridin-6-yl)-6-((3R,5S)-3,4,5-trimethylpiperazin-1-yl)thieno[2,3-b]pyridine-2-carboxamide] | < 100 |
| Cc1cn2cc(NC(=O)c3cc4ccc(N5CCC(N6CCCC6)C5)nc4s3)ccc2n1 (centres unmarked) [Compound 19, 6-([1,3′-bipyrrolidin]-1′-yl)-N-(2-methylimidazo[1,2-a]pyridin-6-yl)thieno[2,3-b]pyridine-2-carboxamide] | 100 to 1000 |
| Cc1cn2cc(NC(=O)c3cc4ccc(N5CCC6(CCN(C)CC6)CC5)nc4s3)ccc2n1 [Compound 20] | 100 to 1000 |
| Cc1cn2cc(NC(=O)c3cc4ccc(N5C[C@H]6CN(C)C[C@H]6C5)nc4s3)ccc2n1 [Compound 21, 6-((3aR,6aS)-5-methylhexahydropyrrolo[3,4-c]pyrrol-2(1H)-yl)-N-(2-methylimidazo[1,2-a]pyridin-6-yl)thieno[2,3-b]pyridine-2-carboxamide] | 100 to 1000 |
| Cc1cn2cc(NC(=O)c3cc4ccc(N5CC(N(C)C)C5)nc4s3)ccc2n1 [Compound 22, 6-(3-(dimethylamino)azetidin-1-yl)-N-(2-methylimidazo[1,2-a]pyridin-6-yl)thieno[2,3-b]pyridine-2-carboxamide] | 1000 to 9000 |
| Cc1cn2cc(NC(=O)c3cc4ccc(N(C)CCN(C)C)nc4s3)ccc2n1 [Compound 23, 6-((2-(dimethylamino)ethyl)(methyl)amino)-N-(2-methylimidazo[1,2-a]pyridin-6-yl)thieno[2,3-b]pyridine-2-carboxamide] | 100 to 1000 |
| Cc1cn2cc(NC(=O)c3cc4ccc(N5C[C@@H]6[C@H](C5)[C@H]6N(C)C)nc4s3)ccc2n1 [Compound 24, 6-((1R,5S,6s)-6-(dimethylamino)-3-azabicyclo[3.1.0]hexan-3-yl)-N-(2-methylimidazo[1,2-a]pyridin-6-yl)thieno[2,3-b]pyridine-2-carboxamide] | 1000 to 9000 |
